Reference: patent US20120237937A1, “METHODS TO DETECT CANCER IN ANIMALS” (UNIVERSITY OF LOUISVILLE RESEARCH FOUNDATION, INC., priority 2009, published 2012)

Key:
[1] = Time course analysis of 13C-metabolites in plasma by 1H NMR after [U-13C]-Glc infusion; assay type: in vivo, human; conditions: 3 hrs after [U-13C]-glucose infusion, lung cancer patients
Experimental: The extraction was performed twice for quantitative recovery.
See Fan et al. (2008) Prog. NMR Spectrosc. 52, 69-117; Fan (1996) Prog. NMR Spectrosc 28, 161-219.
In order to determine the optimal time to sample tissue after infusing [U-^13C]-Glc into lung cancer patients, we used ^1H NMR to analyze the profiles of ^13C-labeled products in plasma samples at several time points. Other than the administered tracer itself ([U-^13C]-Glc), the major ^13C-labeled metabolite in plasma was lactate. Plasma samples were collected 0, 3, and 12 hr after [U-^13C]-Glc infusion, as described in the Patient Treatment and Sample Collection section above. Unlabeled glucose and lactate concentrations were quantified by 1-D ^1H NMR using DSS as the calibration standard. Their % ^13C enrichment was determined from the respective ^13C satellite peaks in 1-D ^1H NMR spectra. Panels A-D illustrate the time course changes in glucose and lactate concentrations as well as their % ^13C enrichment. […] The chemical shifts of lactate and Ala reflected the acidic pH of the TCA extract.

[2] = Isotopic enrichment in SCID mouse tissue lactate and glucose by 1D 1H NMR; assay type: in vivo; conditions: Lac at C3, Glc at C1α
Experimental: (§1) A 20% solution of glucose in normal saline was sterile-filtered. 100 μL of this solution, or a 1:10 dilution (2%) were injected into the tail vein of a restrained mouse without anesthesia.
Mice were sacrificed at different times post glucose injection, and the following organs were dissected sequentially: lung, heart, liver, kidney, brain, spleen, and thigh muscle. Dissected tissue was flash frozen in liquid N2 within 1 minute of killing the animal.
Frozen tissues were ground in liquid N2 to <10 μm particles in a 6750 Freezer/Mill (Retsch, Inc., Newtown, Pa.) and extracted for soluble and lipidic metabolites as follows. Up to 20 mg of frozen tissue powder in 15 ml polypropylene conical centrifuge tube (Sarstedt, Newton, N.C.) containing 3 mm diameter glass beads was vigorously mixed with 2 ml of cold acetonitrile (mass spectrometry grade, stored at −20° C.) to denature proteins, followed by addition of 1.5 ml nanopure water, and 1 ml HPLC-grade chloroform (Fisher Scientific). The mixture was shaken vigorously until achieving a milky consistency followed by centrifugation at 3,000 g for 20 minutes at 4° C. to separate the polar (top), lipidic (bottom), and tissue debris layers (interface). The polar and lipidic layers were recovered sequentially and the remaining cell debris was extracted again with 0.5 ml chloroform:methanol:butylated hydroxytoluene (BHT) (2:1:1 mM) which was pooled with the lipidic fraction. All three fractions were vacuum-dried in a speedvac device (Vacufuge, Eppendorf, New York, N.Y.) and/or by lyophylization. The dry weight of tissue debris was obtained for normalization of metabolite content. The polar extracts were redissolved in 100% D2O containing 30 nmol perdeuterated DSS (2,2-dimethyl-2-silapentane-5-sulfonate, Cambridge Isotope Laboratories, Andover, Mass.) as internal chemical shift and concentration reference for NMR measurement.
(§2) NMR spectra were recorded at 14.1 T on a Varian Inova spectrometer equipped with a 5 mm inverse triple resonance cold probe, at 20° C. 1D NMR spectra were recorded with an acquisition time of 2 s and a recycle time of 5 sec. Concentrations of metabolites and ^13C incorporation were determined by peak integration of the ^1H NMR spectra referenced to the DSS methyl groups, with correction for differential relaxation, as previously described (See, Lane et al. (2008) Biophysical Tools for Biologists. 84: 541-588; Fan et al. (2008) Progress in NMR Spectroscopy 52: 69-117; Lane et al. (2007) Metabolomics 3: 79-86.). ^1H Spectra were typically processed with zero filling to 131 k points, and apodized with an unshifted Gaussian and a 0.5 Hz line broadening exponential.
The same extracts from FIG. 9 were analyzed by NMR to complement the GC-MS analysis. The ^13C enrichment into glucose/glucose-6-phosphate and lactate was determined by 1D ^1H NMR. The enrichments at 15 and 30 minutes post infusion were substantial in all tissues, and peak lactate enrichments differed according to the metabolic activity or glucose uptake rates of the different tissues (Table 7).
Lac measured at C3, G1c measured at C1α by NMR

[3] = Time course of plasma 13C-glucose and 13C-lactate in SCID mice by NMR; assay type: in vivo, SCID mouse
Experimental: as §1
Approximately 50 μL samples of blood were taken intraorbitally at timed intervals, chilled and separated into plasma and whole blood by centrifugation at 4° C. at 3,000 g for 5 minutes. Plasma was flash frozen in liquid N2 for storage prior to workup.
Twenty to thirty μl of plasma was made to 10% trichloroacetic acid (TCA) and centrifuged at 4° C., at ≧22,000 g for 20 minutes to remove denatured proteins. The polar supernatant was lyophilized to remove TCA before preparation for NMR and GC-MS analysis.
as §2
The two SCID mice were injected via the tail vein with […] [U-^13C]-glucose. Blood was sequentially taken intraorbitally, and analyzed by NMR as described in the NMR Spectroscopy section. To assess the optimal time for metabolizing the ^13C6-glucose in mice, plasma samples were taken at 15-minute intervals and processed for NMR analysis. […] The initial glucose enrichment ranged from 30 to >50% depending on the size of the mouse, which means that the plasma glucose concentration was roughly doubled immediately after the bolus [U-^13C]-glucose injection. The % enrichment for glucose decreased rapidly and asymptotically within one hour, presumably via the normal homeostatic mechanism. […] The initial rate of ^13C lactate production was approximately equal to the initial rate of glucose consumption, but then decayed after about 20 minutes.

[4] = GC-MS quantification of total and 13C-enriched metabolites in paired normal and cancerous lung tissues
lung tumor = experiment: Response of lung lesions of patient 25b to Erlotinib; assay type: in vivo, human; conditions: Stage I
Excerpt: The horizontal dotted line represents a ratio of 1. […] See also, Fan et al. (2009) Exp. Molec. Pathol. 87, 83-86.

[5] = NMR 13C-isotopomer profiling of TCA extracts of paired non-cancerous and cancerous lung tissues; conditions: in vivo
Experimental: Lung cancer patients were recruited based on the criteria of surgical eligibility and no history of diabetes. Each patient was consented in accordance with the U.S. HIPAA regulations. The following patient protocol was approved by the Internal Review Board at the University of Louisville. Ten grams uniformly ^13C labeled glucose ([U-^13C]-Glc or ^13C6-Glc or ^13C6-Glucose) in sterile saline solution were infused i.v. over a 30 min time period into each patient in the pre-op room approximately 3 or 12 hr prior to resection. Whole blood samples were collected into a vacutainer containing the anticoagulant K3EDTA or K3-EDTA before and after [U-^13C]-Glc infusion as well as after the surgery. Additional blood samples were collected 3 and 12 hr after the [U-^13C]-Glc infusion for the 12 hr treatment cases. […] The blood samples were placed on ice immediately after collection and centrifuged at 4° C. at 3,500×g for 15 min to recover the plasma fraction. All blood samples were aliquoted and flash-frozen in liquid N2 within 30 min of collection. Potassium EDTA was used as an anti-coagulant to minimize metabolic artifacts associated with anti-coagulation; it also served to remove the influence of interfering cations such as paramagnetic Fe^3+ and Cu^2+ for NMR analysis.
All timings from first incision to cutting arteries and veins to the lung were recorded so that the period of ischemia could be determined immediately after tissue resection, excess blood was blotted from the tissue, and small pieces of non-cancerous and tumor tissue were cut by the surgeon and freeze-clamped in liquid N2 within 5 minutes of removal from the chest cavity. The freezing process arrested metabolic changes almost instantaneously. […] Non-cancerous tissue was removed at least 2 cm from the tumor margin and certified to be tumor-free by trained pathologists. Subsequent pathological evaluation also confirmed tumor status and provided the tumor stage. All samples were stored at −80° C. until further processing for analysis.
Frozen tissue samples were pulverized into <10 μm particles in liquid N2 using a Spex freezer mill (Spex CertiPrep, Inc., Metuchen, N.J.) to maximize efficiency for subsequent extraction while maintaining biochemical integrity. An aliquot of the frozen powder was lyophilized before extraction for metabolites.
Water-soluble or polar metabolites were extracted from lyophilized tissue powders (4-48 mg) in ice-cold 10% trichloroacetic acid (TCA) (v/w minimum 40/1) while leaving proteins, nucleic acids, and polysaccharides behind, as described previously (Kim et al. Antioxidants & Redox Signaling 2001, 3:361-373). The extraction was performed twice for quantitative recovery. An aliquot (150 μl) of plasma samples were made to final 10% TCA concentration to precipitate proteins and recover metabolites in the supernatant. TCA was then removed from tissue or plasma extracts by lyophilization. The dry pellet was dissolved in nanopure water and two small aliquots were lyophilized for silylation and GC-MS analysis while the remaining bulk was passed through a Chelex 100 resin column (Bio-Rad Laboratories, Inc., Hercules, Calif.) to neutralize and remove interfering multivalent cations for NMR analysis.
The ^1H reference standard, DSS (2,2-Dimethyl-2-silapentane-5-sulfonate sodium salt) was added (30 or 50 nmoles) to the TCA extracts of tissue or plasma samples, respectively. […]

## CC(O)C(=O)O (stereo not shown) [lactate]
[1]
  % 13C enrichment in plasma: 5-22%
[2]; Heart, 15 min
  % 13C isotopic enrichment in tissue: 25%
[2]; Heart, 30 min
  % 13C isotopic enrichment in tissue: 33%
[2]; Kidney, 15 min
  % 13C isotopic enrichment in tissue: 19%
[2]; Kidney, 30 min
  % 13C isotopic enrichment in tissue: 17%
[2]; Liver, 15 min
  % 13C isotopic enrichment in tissue: 11%
[2]; Liver, 30 min
  % 13C isotopic enrichment in tissue: 13%
[2]; Lung N, 15 min
  % 13C isotopic enrichment in tissue: 20%
[2]; Lung N, 30 min
  % 13C isotopic enrichment in tissue: 17%
[2]; Thigh muscle, 15 min
  % 13C isotopic enrichment in tissue: 17%
[2]; Thigh muscle, 30 min
  % 13C isotopic enrichment in tissue: 11%
[3]; SCID mice, after [U-13C]-glucose bolus
  peak % 13C enrichment in plasma: 8-12%
[3]; SCID mice, post injection
  time of peak 13C enrichment in plasma: 15 to 20 min
[4]; patient #6 (sqC, grade II), cancer tissue
  metabolite content of lung tissue: 29.55 μmole/g dry weight
[4]; patient #6 (sqC, grade II), normal tissue
  metabolite content of lung tissue: 2.66 μmole/g dry weight
[4]; patient #7 (adenoC, grade II), cancer tissue
  metabolite content of lung tissue: 10.62 μmole/g dry weight
[4]; patient #7 (adenoC, grade II), normal tissue
  metabolite content of lung tissue: 11.80 μmole/g dry weight
[4]; patient #8 (sqC, grade II-III), cancer tissue
  metabolite content of lung tissue: 17.72 μmole/g dry weight
[4]; patient #8 (sqC, grade II-III), normal tissue
  metabolite content of lung tissue: 9.44 μmole/g dry weight
[4]; patient #9 (sqC, grade II), cancer tissue
  metabolite content of lung tissue: 25.31 μmole/g dry weight
[4]; patient #9 (sqC, grade II), normal tissue
  metabolite content of lung tissue: 19.52 μmole/g dry weight
[4]; patient #10 (sqC, grade III), cancer tissue
  metabolite content of lung tissue: 29.67 μmole/g dry weight
[4]; patient #10 (sqC, grade III), normal tissue
  metabolite content of lung tissue: 8.27 μmole/g dry weight

## C#Cc1cccc(Nc2ncnc3cc(OCCOC)c(OCCOC)cc23)c1 [Erlotinib]
Lung tumor; lower lobe (LL) lesion
  response of lesion: responded
Lung tumor; upper lobe (UL) lesion
  response of lesion: did not

## O[13CH2][13C@H]1O[13CH](O)[13C@H](O)[13C@@H](O)[13C@@H]1O (stereo partly shown) [[U-^13C]-Glucose, uniformly ^13C labeled glucose, reference compound]
[5]
  % 13C enrichment of metabolite in lung tissue: 15.5%
[3]; mouse, in vivo
  apparent half-life in plasma: 16 to 22 min
  initial % 13C enrichment in plasma: 65%
